Numbering of substitutions follows the chain as printed.
B1: NC-0: DNA NC variant with 0 nucleotides complementary to the sgRNA (nucleic acid)
DNA: GAGAAACGAGTGCGGTCACAGCTAAGCTAGATGCATCTAGCAAGCGCCGCCACTGATTTCACCGCTTCAAGCTAGATGCATCTAGCAAT
modifications: DNA nanoclew made by rolling circle amplification of circularized template, further chemistry not given here; the letters are possibly those of the target site
notes: DNA NC variant with 0 nucleotides complementary to the sgRNA
B2: NC-23: DNA NC variant with 23 nucleotides complementary to the sgRNA (nucleic acid)
DNA: GGGCACGGGCAGCTTGCCGGTGGAAGCTAGATGCATCTAGCAAGCGCCGCCACTGATTTCACCGCTTCAAGCTAGATGCATCTAGCAAT
modifications: DNA nanoclew made by rolling circle amplification of circularized template, further chemistry not given here; the letters are possibly those of the target site
notes: DNA NC variant with 23 nucleotides complementary to the sgRNA
B3: NC-12: DNA nanoclew encoding 12 nucleotides complementary to the 5′ end of the sgRNA (nucleic acid)
DNA: B2 DNA with G2C, G3T, C4A, A5C, C18A, G19T, G20C, T21A, G22A, G23T
modifications: Rolling circle amplification template for DNA nanoclew, further chemistry not given here; the letters are possibly those of the target site
notes: DNA nanoclew encoding 12 nucleotides complementary to the 5′ end of the sgRNA

Columns and labels:
[1] = tested on: MCF-7 cells; assay: Determination of endocytosis pathways in MCF-7 cells; assay type: cell-based, human; conditions: CPZ 10 μM, AMI 1 mM, DOX 2 μM, 2 h
Method: MCF-7 cells were seeded in 6-well plates (1×10^4 cells per well) and culture for 48 h. […] Then the cells were incubated with DOX/FA-NCl/NCa at DOX concentration of 2 μM or FA-NCI/AF488-NCa of the same concentration in the presence of the inhibitors for another 2 h. After washing the cells by 4° C. PBS twice, the cells were lysed with Pierce IP lysis buffer (Thermo Scientific) and centrifuged. Fluorescence of DOX and AF488 and protein concentration in the supernatant were measured, respectively, by a microplate reader (Infinite […], Tecan).

[2] = tested on: U2OS.EGFP cells; assay: Determination of endocytosis pathways in U2OS.EGFP cells; assay type: cell-based, human; conditions: MCD 3 mM, AMI 1 mM, flow cytometry
Method: U2OS.EGFP cells were seeded in 24-well plates (˜25000 cells/well) and cultured for 2 d. Then the cells were pre-incubated with several endocytosis inhibitors^[19b], such as chlorpromazine (CPZ, 10 μM) for clathrin-mediated endocytosis, nystatin (NYS, 25 μg/mL) for caveolin-mediated endocytosis, methyl-β-cyclodextrin (MCD, 3 mM) for lipid raft and amiloride (AMI, 1 mM) for macropinocytosis, for 1 h at 37° C., respectively. Afterwards, the cells were incubated with AF647-Cas9/sgRNA/NC/PEI for another 2 h in the presence of the inhibitors. Cells were then washed, trypsinized and resuspended in full serum medium, intracellular AF647 fluorescence intensities were analyzed by flow cytometry.

[3] = Stability of DNA NC incubated with Cas9/sgRNA (agarose gel); assay type: physicochemical; conditions: Cas9/sgRNA 24 h
Method: The DNA NCs were prepared by RCA using cyclized single stranded DNA (ssDNA) templates. 5′ phosphorylated linear ssDNA templates (FIG. 21) were cyclized by CircLigase II ssDNA ligase (Epicentre) following manufacture's instructions. Unligated ssDNA chains were removed with 1 U Exo I (NEB) at 37° C. for 45 min followed by heat inactivation at 80° C. for 15 min. The cyclized ssDNA template (10 pmol) was added into 1 mL 1× isothermal amplification buffer (NEB) together with 0.5 μM primer and 200 μM dNTP and heated to 95° C. for 5 min. After hybridizing the template and primer by cooling the mixture to room temperature, Bst 2.0 DNA polymerase (0.2 U/μL) was added to initiate the RCA. The RCA was performed at 65° C. overnight and the denatured polymerase after the reaction was removed by centrifugation at 14,000×g for 2 min. […] The synthesized DNA NCs were analyzed by 0.8% agarose gel electrophoresis and Nanodrop 2000C (Thermal Scientific) was applied to measure the concentration and purity of the DNA NC. […] Zeta potential and particle size of NC were measured with a Zetasizer (Malvern). To image the NC by atomic force microscopy (AFM), the NC was dropped and dried onto a silicon wafer (Ted Pella) and analyzed on a Nanoscope AFM instrument (Veeco, Santa Barbara, Calif.) using tapping mode in ambient air.

[4] = tested on: EGFP gene in U2OS.EGFP cells; assay: EGFP gene disruption assay in U2OS.EGFP cells (fluorescence microscopy, flow cytometry); assay type: cell-based, human; conditions: NC-23, NC-12, NC-0 coated with PEI; different Cas9/sgRNA molar ratios
Method: The reporter cell line U2OS.EGFP with a single copy of destabilized EGFP gene integrated into the genome was a generous gift from Dr. J Keith Joung at Massachusetts General Hospital.^[6b] The cells were cultured in a 37° C. incubator under 5% CO2 and 90% humidity with full serum medium: Dulbecco's Modified Eagle's Medium supplemented with 10% (v/v) FBS, 2 mM GlutaMAX (Life Technologies), penicillin (100 U/mL) and streptomycin (100 μg/mL). U2OS.EGFP cells were seeded into 24-well plates (˜25,000 cells per well) one day before the transfection. […] Two days after the delivery, the cells were analyzed using a fluorescent microscope (IX71, Olympus). For the flow cytometry analysis, the cells were washed with ice cold PBS twice and trypsinized with 0.05% trypsin (Mediatech) at 37° C. for 1-2 min. Afterwards, the cells were washed and resuspended in full serum medium and analyzed by a BD Accuri C6 flow cytometer (BD Biosciences).

| Molecule | effect of endocytosis inhibitor on internalization of DOX/FA-NCl/NCa [1] | effect of endocytosis inhibitor on uptake of Cas9/sgRNA/NC-12/PEI (AF647-Cas9) [2] | resistance of DNA NC to Cas9/sgRNA degradation [3] | also measured |
| --- | --- | --- | --- | --- |
| N=C(N)NC(=O)c1nc(Cl)c(N)nc1N [amiloride] | pronounced effects in inhibiting the internalization | greatest reduction in Cas9 uptake |  |  |
| CN(C)CCCN1c2ccccc2Sc2ccc(Cl)cc21 [chlorpromazine] | pronounced effects in inhibiting the internalization |  |  |  |
| methyl-β-cyclodextrin |  | greatest reduction in Cas9 uptake |  |  |
| B1 |  |  | resistant to Cas9/sgRNA degradation |  |
| B2 |  |  | resistant to Cas9/sgRNA degradation |  |
| B3 |  |  |  | fraction of EGFP negative cells among DNA NC variants [4]: highest fraction of EGFP negative cells |
